Columns and labels:
Assay type in all cases: cell-based
[1] = target: T1, human TLR8 (Homo sapiens, UniProt Q9NR97); assay: TLR8 inhibition reporter assay (HEK-Blue cells, SEAP reporter, R848 stimulation); settings: HEK-Blue cells overexpressing human TLR8, SEAP reporter, R848 15.9 μM
T1 construct: host or cells: HEK-Blue cells (HEK293-derived reporter line)
T1 sequence (Q9NR97 27-1041): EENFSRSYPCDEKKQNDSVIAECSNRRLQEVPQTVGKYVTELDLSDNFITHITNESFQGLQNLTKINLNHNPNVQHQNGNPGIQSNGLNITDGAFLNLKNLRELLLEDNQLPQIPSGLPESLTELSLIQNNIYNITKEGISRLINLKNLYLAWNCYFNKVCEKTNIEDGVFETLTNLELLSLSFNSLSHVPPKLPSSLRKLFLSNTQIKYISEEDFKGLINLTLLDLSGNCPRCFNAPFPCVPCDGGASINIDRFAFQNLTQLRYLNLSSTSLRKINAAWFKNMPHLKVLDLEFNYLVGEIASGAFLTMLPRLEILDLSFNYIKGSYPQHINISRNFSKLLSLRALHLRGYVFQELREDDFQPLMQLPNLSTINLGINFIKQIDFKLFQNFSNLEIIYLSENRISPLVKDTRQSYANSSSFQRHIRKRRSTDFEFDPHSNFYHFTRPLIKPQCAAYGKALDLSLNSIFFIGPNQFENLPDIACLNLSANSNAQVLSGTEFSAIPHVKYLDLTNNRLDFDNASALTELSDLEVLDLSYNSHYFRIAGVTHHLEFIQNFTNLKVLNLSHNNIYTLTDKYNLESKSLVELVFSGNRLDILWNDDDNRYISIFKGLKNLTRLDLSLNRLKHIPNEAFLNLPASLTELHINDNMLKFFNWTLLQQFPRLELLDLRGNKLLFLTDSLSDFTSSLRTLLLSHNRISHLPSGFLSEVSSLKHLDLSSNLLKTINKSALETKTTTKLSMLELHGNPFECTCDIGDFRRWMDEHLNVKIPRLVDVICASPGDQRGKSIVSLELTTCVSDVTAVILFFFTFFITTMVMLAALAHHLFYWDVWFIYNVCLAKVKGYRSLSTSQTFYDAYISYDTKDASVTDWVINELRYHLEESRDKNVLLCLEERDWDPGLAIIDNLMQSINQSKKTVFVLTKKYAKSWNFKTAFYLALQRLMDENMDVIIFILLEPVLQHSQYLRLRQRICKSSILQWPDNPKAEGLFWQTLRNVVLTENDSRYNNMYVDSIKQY
Procedure, shortened: (§1)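 HEK-Blue cells overexpressing human TLR7, TLR8 or TLR9 (NF-κB/AP-1-driven SEAP) pre-treated 30 min at room temperature with compound (0.05 nM–50 μM), then stimulated with gardiquimod 7.5 μM (TLR7), R848 15.9 μM (TLR8) or ODN2006 5 nM (TLR9). SEAP read colorimetrically after 22 h at 37 °C; % inhibition calculated.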

[2] = target: T2, human TLR9 (Homo sapiens, UniProt Q9NR96); assay: TLR9 inhibition reporter assay (HEK-Blue cells, SEAP reporter, ODN2006 stimulation); settings: HEK-Blue cells overexpressing human TLR9, SEAP reporter, ODN2006 5 nM
T2 construct: host or cells: HEK-Blue cells (HEK293-derived reporter line)
T2 sequence (Q9NR96 26-1032): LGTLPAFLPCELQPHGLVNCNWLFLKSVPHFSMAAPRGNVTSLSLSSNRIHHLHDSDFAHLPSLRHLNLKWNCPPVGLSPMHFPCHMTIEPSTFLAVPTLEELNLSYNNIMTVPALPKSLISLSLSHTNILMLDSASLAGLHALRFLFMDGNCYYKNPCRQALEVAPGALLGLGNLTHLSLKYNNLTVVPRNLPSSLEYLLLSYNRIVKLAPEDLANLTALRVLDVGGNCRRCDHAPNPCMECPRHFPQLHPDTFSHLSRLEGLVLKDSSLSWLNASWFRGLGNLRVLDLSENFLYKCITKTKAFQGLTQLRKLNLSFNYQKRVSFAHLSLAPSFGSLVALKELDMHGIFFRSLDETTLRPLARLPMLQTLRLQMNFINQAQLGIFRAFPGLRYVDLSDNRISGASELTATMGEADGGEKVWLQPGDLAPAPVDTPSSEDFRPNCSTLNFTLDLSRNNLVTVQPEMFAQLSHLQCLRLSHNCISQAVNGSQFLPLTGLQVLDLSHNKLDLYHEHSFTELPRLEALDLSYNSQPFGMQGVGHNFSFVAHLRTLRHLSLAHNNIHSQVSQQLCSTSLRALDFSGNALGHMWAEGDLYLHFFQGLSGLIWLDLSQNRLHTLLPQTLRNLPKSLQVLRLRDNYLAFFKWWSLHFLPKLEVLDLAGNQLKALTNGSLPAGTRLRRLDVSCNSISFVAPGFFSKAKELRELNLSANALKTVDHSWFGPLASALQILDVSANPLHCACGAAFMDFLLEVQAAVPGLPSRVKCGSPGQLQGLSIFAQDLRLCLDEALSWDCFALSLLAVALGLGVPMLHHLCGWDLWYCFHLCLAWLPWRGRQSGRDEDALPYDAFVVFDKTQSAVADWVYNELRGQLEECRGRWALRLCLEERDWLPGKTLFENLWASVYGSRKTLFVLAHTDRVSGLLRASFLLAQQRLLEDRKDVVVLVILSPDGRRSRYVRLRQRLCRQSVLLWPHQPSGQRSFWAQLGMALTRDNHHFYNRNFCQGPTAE
Procedure, shortened: as §1

[3] = target: T3, human TLR7 (Homo sapiens, UniProt Q9NYK1); assay: TLR7 inhibition reporter assay (HEK-Blue cells, SEAP reporter, gardiquimod stimulation); settings: HEK-Blue cells overexpressing human TLR7, SEAP reporter, gardiquimod 7.5 μM
T3 construct: host or cells: HEK-Blue cells (HEK293-derived reporter line)
T3 sequence (Q9NYK1 27-1049): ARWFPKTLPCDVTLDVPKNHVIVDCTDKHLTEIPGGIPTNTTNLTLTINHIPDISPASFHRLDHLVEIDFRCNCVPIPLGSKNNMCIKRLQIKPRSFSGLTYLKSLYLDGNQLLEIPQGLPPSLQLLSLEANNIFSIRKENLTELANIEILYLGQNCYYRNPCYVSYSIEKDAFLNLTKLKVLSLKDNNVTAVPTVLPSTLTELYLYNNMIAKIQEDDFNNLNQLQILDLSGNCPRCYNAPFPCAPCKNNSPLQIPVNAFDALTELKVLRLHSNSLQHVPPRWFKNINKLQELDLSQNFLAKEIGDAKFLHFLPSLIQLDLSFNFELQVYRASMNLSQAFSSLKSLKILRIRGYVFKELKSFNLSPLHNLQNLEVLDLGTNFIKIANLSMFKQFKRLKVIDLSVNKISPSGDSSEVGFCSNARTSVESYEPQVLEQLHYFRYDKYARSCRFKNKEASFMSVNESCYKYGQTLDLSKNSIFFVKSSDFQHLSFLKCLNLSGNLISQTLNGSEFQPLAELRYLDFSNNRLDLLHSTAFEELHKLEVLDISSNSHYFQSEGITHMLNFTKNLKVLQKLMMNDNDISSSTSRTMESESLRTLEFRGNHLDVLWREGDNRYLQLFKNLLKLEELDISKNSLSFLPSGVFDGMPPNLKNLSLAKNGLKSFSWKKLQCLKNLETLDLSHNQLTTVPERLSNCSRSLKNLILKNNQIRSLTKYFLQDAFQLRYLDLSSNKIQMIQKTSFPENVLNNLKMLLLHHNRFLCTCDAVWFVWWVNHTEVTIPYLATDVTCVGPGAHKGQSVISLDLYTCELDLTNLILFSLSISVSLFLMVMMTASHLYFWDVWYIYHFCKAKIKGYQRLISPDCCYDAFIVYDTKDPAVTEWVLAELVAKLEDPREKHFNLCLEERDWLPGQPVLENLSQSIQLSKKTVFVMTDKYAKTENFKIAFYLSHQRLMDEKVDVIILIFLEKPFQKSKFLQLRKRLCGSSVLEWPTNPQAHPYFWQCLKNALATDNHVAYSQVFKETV
Procedure, shortened: as §1

SMILES	IC50 [1] [nM]	IC50 [2] [nM]	IC50 [3] [nM]
CC(C)c1c(-c2ccnc3[nH]ncc23)[nH]c2ccc(C3CCN(C(=O)c4cscn4)CC3)cc12 [Example 611, (4-(3-isopropyl-2-(1H-pyrazolo[3,4-b]pyridin-4-yl)-1H-indol-5-yl)piperidin-1-yl)(thiazol-4-yl)methanone]	100 to 1000	1000 to 50000	< 100
CC(C)NC(=O)CN1CCC(c2ccc3[nH]c(-c4ccc5nccn5c4)c(C(C)C)c3c2)CC1 [Example 402, 2-(4-(2-(imidazo[1,2-a]pyridin-6-yl)-3-isopropyl-1H-indol-5-yl)piperidin-1-yl)-N-isopropylacetamide]	100 to 1000	1000 to 50000	< 100
Cc1cc(-c2[nH]c3ccc(C4CCNCC4)cc3c2C(C)C)cn2nncc12 [Example 70, 6-(3-isopropyl-5-(piperidin-4-yl)-1H-indol-2-yl)-4-methyl-[1,2,3]triazolo[1,5-a]pyridine]	100 to 1000	1000 to 50000	100 to 1000
CC(C)c1c(-c2cnc3ccnn3c2)[nH]c2ccc(C3CCN(Cc4cnn(C)c4)CC3)cc12 [Example 932, 6-(3-isopropyl-5-(1-((1-methyl-1H-pyrazol-4-yl)methyl)piperidin-4-yl)-1H-indol-2-yl)pyrazolo[1,5-a]pyrimidine]	1000 to 50000	100 to 1000	100 to 1000
Cc1cc(-c2[nH]c3ccc(C4CCN(C(=O)CCN5CCC(F)(F)C5)CC4)cc3c2C(C)C)cn2nnnc12 [Example 626, 3-(3,3-difluoropyrrolidin-1-yl)-1-(4-(3-isopropyl-2-(8-methyltetrazolo[1,5-a]pyridin-6-yl)-1H-indol-5-yl)piperidin-1-yl)propan-1-one]	100 to 1000	> 50000	< 100
CC(C)c1c(-c2ccnc3[nH]ncc23)[nH]c2ccc(C3CCN(Cc4cn(C)cn4)CC3)cc12 [Example 906, 4-(3-isopropyl-5-(1-((1-methyl-1H-imidazol-4-yl)methyl)piperidin-4-yl)-1H-indol-2-yl)-1H-pyrazolo[3,4-b]pyridine]	< 100	100 to 1000	< 100

The remaining lines, values ahead:

IC50 [1] [nM]	IC50 [2] [nM]	IC50 [3] [nM]	SMILES
< 100	1000 to 50000	< 100	CCOc1cc(-c2[nH]c3ccc(C4CCN(CC(=O)N(C)C)CC4)cc3c2C(C)C)cc2nc(C)nn12 [Example 404, 2-(4-(2-(5-ethoxy-2-methyl-[1,2,4]triazolo[1,5-a]pyridin-7-yl)-3-isopropyl-1H-indol-5-yl)piperidin-1-yl)-N,N-dimethylacetamide]
< 100	1000 to 50000	< 100	Cc1cc(-c2[nH]c3ccc(C4CCN(Cc5cnn[nH]5)CC4)cc3c2C(C)C)cn2nnnc12 [Example 883, 6-(5-(1-((1H-1,2,3-triazol-5-yl)methyl)piperidin-4-yl)-3-isopropyl-1H-indol-2-yl)-8-methyltetrazolo[1,5-a]pyridine]
< 100	1000 to 50000	< 100	Cc1cc(-c2[nH]c3ccc(C4CCN(C(=O)CN5CCOCC5)CC4)cc3c2C(C)C)cn2nnnc12 [Example 476, 1-(4-(3-isopropyl-2-(8-methyltetrazolo[1,5-a]pyridin-6-yl)-1H-indol-5-yl)piperidin-1-yl)-2-morpholinoethan-1-one]
< 100	1000 to 50000	100 to 1000	CCc1c(-c2ccnc3[nH]ncc23)[nH]c2ccc(C3CCN(Cc4csnn4)CC3)cc12 [Example 930, 4-((4-(3-ethyl-2-(1H-pyrazolo[3,4-b]pyridin-4-yl)-1H-indol-5-yl)piperidin-1-yl)methyl)-1,2,3-thiadiazole]
< 100	1000 to 50000	< 100	Cc1ccnc2c1c(-c1[nH]c3ccc(C4CCN(C5CCOCC5)CC4)cc3c1C(C)C)cn2C [Example 689, 3-(3-isopropyl-5-(1-(tetrahydro-2H-pyran-4-yl)piperidin-4-yl)-1H-indol-2-yl)-1,4-dimethyl-1H-pyrrolo[2,3-b]pyridine]
< 100	100 to 1000	< 100	Cc1cc2nccn2cc1-c1[nH]c2ccc(C3CCN(C4CCOCC4)CC3)cc2c1C(C)C [Example 693, 6-(3-isopropyl-5-(1-(tetrahydro-2H-pyran-4-yl)piperidin-4-yl)-1H-indol-2-yl)-7-methylimidazo[1,2-a]pyridine]
< 100	1000 to 50000	< 100	CC(C)c1c(-c2ccnc3[nH]ncc23)[nH]c2ccc(C3CCN(C(=O)CNCC(C)(C)C)CC3)cc12 [Example 589, 1-(4-(3-isopropyl-2-(1H-pyrazolo[3,4-b]pyridin-4-yl)-1H-indol-5-yl)piperidin-1-yl)-2-(neopentylamino)ethan-1-one]
< 100	1000 to 50000	100 to 1000	CNCCN1CCC(c2ccc3[nH]c(-c4ccnc5[nH]ncc45)c(C(C)C)c3c2)C(F)C1 (stereo not drawn) [Example 678, 2-(3-fluoro-4-(3-isopropyl-2-(1H-pyrazolo[3,4-b]pyridin-4-yl)-1H-indol-5-yl)piperidin-1-yl)-N-methylethan-1-amine]

Source: patent US11739098B2 (BRISTOL-MYERS SQUIBB COMPANY, priority 2017, dated 2023)
